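Exposure lasted 48 hours, with cells grown in 96-well plates and compounds tested at five concentrations. GI50 = concentration required for 50% inhibition of growth.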 Activity calls are given as the source filed them. Cut-off read from the data, not from the text of the source: active = GI50 up to about 1.1 µM and inactive = higher.
What was measured:
Test in all cases: NCI-60 cell line screen, 48 h
SF-539 = system: SF-539
SF-268 = system: SF-268
HCC 2998 = system: HCC 2998
UO-31 = system: UO-31
HCT-116 = system: HCT-116
RPMI-8226 = system: RPMI-8226
SF-295 = system: SF-295
MOLT-4 = system: MOLT-4
M19-MEL = system: M19-MEL
COLO 205 = system: COLO 205
SK-MEL-5 = system: SK-MEL-5
SK-MEL-28 = system: SK-MEL-28
LXFL 529 = system: LXFL 529
UACC-62 = system: UACC-62
SW-620 = system: SW-620
HOP-62 = system: HOP-62
HT-29 = system: HT-29
TK-10 = system: TK-10
HOP-92 = system: HOP-92
IGROV-1 = system: IGROV-1
NCI-H460 = system: NCI-H460
SK-OV-3 = system: SK-OV-3
UACC-257 = system: UACC-257
K562 = system: K562
KM12 = system: KM12
NCI-H522 = system: NCI-H522
NCI-H226 = system: NCI-H226
SNB-19 = system: SNB-19
A549 = system: A549
ACHN = system: ACHN
NCI-H23 = system: NCI-H23
DLD-1 = system: DLD-1
SR = system: SR
OVCAR-8 = system: OVCAR-8
U-251 = system: U-251
OVCAR-3 = system: OVCAR-3
CCRF-CEM = system: CCRF-CEM
HL-60 = system: HL-60
SNB-75 = system: SNB-75
HOP-18 = system: HOP-18
DMS-273 = system: DMS-273
SNB-78 = system: SNB-78
M14 = system: M14
LOX IMVI = system: LOX IMVI
CAKI-1 = system: CAKI-1
RXF 393 = system: RXF 393
786-0 = system: 786-0
HCT-15 = system: HCT-15
Malme-3M = system: Malme-3M
SN12C = system: SN12C
EKVX = system: EKVX
MDA-MB-435 = system: MDA-MB-435
SK-MEL-2 = system: SK-MEL-2
Hs-578T = system: Hs-578T
NCI/ADR-RES = system: NCI/ADR-RES
PC-3 = system: PC-3
MDA-MB-231 = system: MDA-MB-231
BT-549 = system: BT-549
T47D = system: T47D
OVCAR-5 = system: OVCAR-5
OVCAR-4 = system: OVCAR-4
MCF7 = system: MCF7
A498 = system: A498
MDA-N = system: MDA-N
DU-145 = system: DU-145

CCOC(=O)/C(C#N)=C1/Sc2c(ncn(/N=C/c3ccc(OC)cc3)c2=O)N1c1ccccc1
GI50 (SF-539): 14.8 µM (inactive)
GI50 (SF-268): 14.8 µM (inactive)
GI50 (HCC 2998): > 100 µM (inactive)
GI50 (UO-31): > 100 µM (inactive)
GI50 (HCT-116): > 100 µM (inactive)
GI50 (RPMI-8226): > 100 µM (inactive)
GI50 (SF-295): 19.1 µM (inactive)
GI50 (MOLT-4): > 100 µM (inactive)
GI50 (M19-MEL): 74 µM (inactive)
GI50 (COLO 205): > 100 µM (inactive)
GI50 (SK-MEL-5): > 100 µM (inactive)
GI50 (SK-MEL-28): 28.7 µM (inactive)
GI50 (LXFL 529): 41.1 µM (inactive)
GI50 (UACC-62): 31.1 µM (inactive)
GI50 (SW-620): > 100 µM (inactive)
GI50 (HOP-62): 22.2 µM (inactive)
GI50 (HT-29): 70.6 µM (inactive)
GI50 (TK-10): 50.2 µM (inactive)
GI50 (HOP-92): 13.9 µM (inactive)
GI50 (IGROV-1): 56.2 µM (inactive)
GI50 (NCI-H460): 28.9 µM (inactive)
GI50 (SK-OV-3): 40.4 µM (inactive)
GI50 (UACC-257): 29.2 µM (inactive)
GI50 (K562): 62.5 µM (inactive)
GI50 (KM12): > 100 µM (inactive)
GI50 (NCI-H522): 25.4 µM (inactive)
GI50 (NCI-H226): 36.1 µM (inactive)
GI50 (SNB-19): 33.5 µM (inactive)
GI50 (A549): 67.8 µM (inactive)
GI50 (ACHN): > 100 µM (inactive)
GI50 (NCI-H23): 54.8 µM (inactive)
GI50 (DLD-1): > 100 µM (inactive)
GI50 (SR): > 100 µM (inactive)
GI50 (OVCAR-8): 40.6 µM (inactive)
GI50 (U-251): 37.4 µM (inactive)
GI50 (OVCAR-3): 41.4 µM (inactive)
GI50 (CCRF-CEM): > 100 µM (inactive)
GI50 (HL-60): > 100 µM (inactive)

Cc1csc(CCC(N)C(=O)O)n1 (configuration not stated)
GI50 (SF-539): > 100 µM (inactive)
GI50 (SNB-75): > 100 µM (inactive)
GI50 (HOP-18): > 100 µM (inactive)
GI50 (HCC 2998): > 100 µM (inactive)
GI50 (UO-31): > 100 µM (inactive)
GI50 (DMS-273): > 100 µM (inactive)
GI50 (SNB-78): > 100 µM (inactive)
GI50 (HCT-116): > 100 µM (inactive)
GI50 (RPMI-8226): > 100 µM (inactive)
GI50 (M14): > 100 µM (inactive)
GI50 (SF-295): > 100 µM (inactive)
GI50 (MOLT-4): > 100 µM (inactive)
GI50 (M19-MEL): > 100 µM (inactive)
GI50 (LOX IMVI): > 100 µM (inactive)
GI50 (CAKI-1): > 100 µM (inactive)
GI50 (COLO 205): > 100 µM (inactive)
GI50 (SK-MEL-5): > 100 µM (inactive)
GI50 (SK-MEL-28): > 100 µM (inactive)
GI50 (LXFL 529): > 100 µM (inactive)
GI50 (UACC-62): > 100 µM (inactive)
GI50 (SW-620): > 100 µM (inactive)
GI50 (HT-29): > 100 µM (inactive)
GI50 (TK-10): > 100 µM (inactive)
GI50 (HOP-92): > 100 µM (inactive)
GI50 (IGROV-1): > 100 µM (inactive)
GI50 (RXF 393): > 100 µM (inactive)
GI50 (NCI-H460): > 100 µM (inactive)
GI50 (SK-OV-3): > 100 µM (inactive)
GI50 (UACC-257): > 100 µM (inactive)
GI50 (K562): > 100 µM (inactive)
GI50 (KM12): > 100 µM (inactive)
GI50 (NCI-H522): > 100 µM (inactive)
GI50 (NCI-H226): > 100 µM (inactive)
GI50 (A549): > 100 µM (inactive)
GI50 (786-0): > 100 µM (inactive)
GI50 (HCT-15): > 100 µM
GI50 (Malme-3M): > 100 µM (inactive)
GI50 (ACHN): > 100 µM (inactive)
GI50 (NCI-H23): > 100 µM (inactive)
GI50 (DLD-1): > 100 µM (inactive)
GI50 (OVCAR-8): > 100 µM (inactive)
GI50 (SN12C): > 100 µM (inactive)
GI50 (U-251): > 100 µM (inactive)
GI50 (EKVX): > 100 µM (inactive)
GI50 (OVCAR-3): > 100 µM (inactive)
GI50 (CCRF-CEM): > 100 µM (inactive)

COC(=O)CCC(C)[C@H]1CCC2C3C(C[C@H](OC(C)=O)[C@@]21C)[C@@]1(C)CCC2(C[C@H]1C[C@H]3OC(C)=O)OOC1(CCCC1)OO2 (some centres not stated)
GI50 (MDA-MB-435): 29.9 µM (inactive)
GI50 (SF-539): > 100 µM (inactive)
GI50 (SF-268): 25.6 µM (inactive)
GI50 (SNB-75): 96.4 µM (inactive)
GI50 (HCC 2998): > 100 µM (inactive)
GI50 (UO-31): 10.1 µM (inactive)
GI50 (HCT-116): 6.43 µM (inactive)
GI50 (RPMI-8226): 2.47 µM (inactive)
GI50 (M14): > 100 µM (inactive)
GI50 (SK-MEL-2): > 100 µM (inactive)
GI50 (SF-295): 83.6 µM (inactive)
GI50 (MOLT-4): 4.28 µM (inactive)
GI50 (LOX IMVI): 7 µM (inactive)
GI50 (CAKI-1): 12.2 µM (inactive)
GI50 (COLO 205): 30.4 µM (inactive)
GI50 (SK-MEL-5): 20.2 µM (inactive)
GI50 (SK-MEL-28): > 100 µM (inactive)
GI50 (SW-620): 51.9 µM (inactive)
GI50 (Hs-578T): 16.5 µM (inactive)
GI50 (HOP-62): 10.3 µM (inactive)
GI50 (HT-29): 34.4 µM (inactive)
GI50 (TK-10): 48.3 µM (inactive)
GI50 (HOP-92): 9.62 µM (inactive)
GI50 (IGROV-1): 5.6 µM (inactive)
GI50 (RXF 393): 63.1 µM (inactive)
GI50 (NCI-H460): 6.82 µM (inactive)
GI50 (SK-OV-3): > 100 µM (inactive)
GI50 (UACC-257): 39.2 µM (inactive)
GI50 (K562): 6.3 µM (inactive)
GI50 (NCI/ADR-RES): 84.5 µM (inactive)
GI50 (KM12): 23.3 µM (inactive)
GI50 (NCI-H522): 23.4 µM (inactive)
GI50 (PC-3): 4.47 µM (inactive)
GI50 (NCI-H226): 27.9 µM (inactive)
GI50 (SNB-19): > 100 µM (inactive)
GI50 (A549): 12.9 µM (inactive)
GI50 (786-0): 29.6 µM (inactive)
GI50 (HCT-15): 27.5 µM
GI50 (MDA-MB-231): 43.3 µM (inactive)
GI50 (Malme-3M): > 100 µM (inactive)
GI50 (BT-549): 46 µM (inactive)
GI50 (ACHN): 10.4 µM (inactive)
GI50 (NCI-H23): 9.18 µM (inactive)
GI50 (T47D): 7.19 µM (inactive)
GI50 (SR): 3.02 µM (inactive)
GI50 (OVCAR-5): > 100 µM (inactive)
GI50 (OVCAR-8): 34.4 µM (inactive)
GI50 (OVCAR-4): 12.6 µM (inactive)
GI50 (MCF7): 31.5 µM (inactive)
GI50 (SN12C): 42.5 µM (inactive)
GI50 (U-251): 8.93 µM (inactive)
GI50 (A498): > 100 µM (inactive)
GI50 (EKVX): 11.1 µM (inactive)
GI50 (MDA-N): 32.4 µM (inactive)
GI50 (OVCAR-3): 5.56 µM (inactive)
GI50 (CCRF-CEM): 7.89 µM (inactive)
GI50 (DU-145): 27 µM (inactive)
GI50 (HL-60): 5.02 µM (inactive)

Source: ChEMBL document CHEMBL1201862, “PubChem BioAssay data set” (2004)
